Earlier results, collected in patent publication US20130259998A1, “FOODSTUFF PRESERVING COMPOSITION AND USE THEREOF” (NIACET B.V., priority 2012, published 2013).

settings: ingredient as such

| SMILES | pH as such |
| --- | --- |
| CC(=O)O.CC(=O)O.NC(=N\CCCCCC/N=C(N)/N=C(\N)Nc1ccc(Cl)cc1)/N=C(\N)Nc1ccc(Cl)cc1 [diacetate] | 4.5-5.0 |
| CC(=O)[O-].[Na+] [sodium acetate] | 8.9 |
| CC(O)C(=O)[O-].[Na+] (stereo not drawn) [sodium lactate] | 6.3 |
